Reference: publication PMC7440666, “Cryo-EM structure of the human concentrative nucleoside transporter CNT3” (PLoS Biology, 2020)

Legend:
[1] = target: T1, hCNT3 (full-length wild-type) (Homo sapiens, UniProt Q9HAS3); test: isothermal titration calorimetry, one-site model; settings: read-out: binding affinity
T1 construct: gene SLC28A3; full-length, C-terminal Strep-tag, codon-optimized cDNA, baculovirus/Sf9 expression, purified in DDM, homotrimer
T1 sequence (Q9HAS3 1-691): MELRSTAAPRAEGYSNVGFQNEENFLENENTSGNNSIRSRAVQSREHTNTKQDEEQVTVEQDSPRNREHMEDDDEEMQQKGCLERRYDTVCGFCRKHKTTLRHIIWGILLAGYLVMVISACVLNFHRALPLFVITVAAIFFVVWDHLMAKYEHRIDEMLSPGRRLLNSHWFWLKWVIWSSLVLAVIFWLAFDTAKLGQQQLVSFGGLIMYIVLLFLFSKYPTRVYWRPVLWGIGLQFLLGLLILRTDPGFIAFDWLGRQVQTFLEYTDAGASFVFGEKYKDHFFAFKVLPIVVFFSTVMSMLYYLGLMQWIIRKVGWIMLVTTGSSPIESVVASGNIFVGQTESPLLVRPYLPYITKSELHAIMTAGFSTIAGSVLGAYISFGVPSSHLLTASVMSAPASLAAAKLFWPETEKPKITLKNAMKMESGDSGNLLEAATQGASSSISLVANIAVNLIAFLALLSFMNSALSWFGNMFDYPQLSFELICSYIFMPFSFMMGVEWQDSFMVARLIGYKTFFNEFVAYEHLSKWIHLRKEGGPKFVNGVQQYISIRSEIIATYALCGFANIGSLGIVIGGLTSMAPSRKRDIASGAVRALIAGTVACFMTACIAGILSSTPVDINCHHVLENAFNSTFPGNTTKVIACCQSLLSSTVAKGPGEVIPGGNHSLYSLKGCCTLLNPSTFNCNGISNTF

CNT3ins (Δ1–69) = target: T2, CNT3ins (Δ1–69) (Homo sapiens, UniProt Q9HAS3); test: isothermal titration calorimetry, one-site model; settings: read-out: binding affinity
T2 construct: gene SLC28A3; lacks the 69 N-terminal residues, C-terminal Strep-tag, baculovirus/Sf9 expression, purified in DDM for ITC, homotrimer
T2 sequence (Q9HAS3 70-691): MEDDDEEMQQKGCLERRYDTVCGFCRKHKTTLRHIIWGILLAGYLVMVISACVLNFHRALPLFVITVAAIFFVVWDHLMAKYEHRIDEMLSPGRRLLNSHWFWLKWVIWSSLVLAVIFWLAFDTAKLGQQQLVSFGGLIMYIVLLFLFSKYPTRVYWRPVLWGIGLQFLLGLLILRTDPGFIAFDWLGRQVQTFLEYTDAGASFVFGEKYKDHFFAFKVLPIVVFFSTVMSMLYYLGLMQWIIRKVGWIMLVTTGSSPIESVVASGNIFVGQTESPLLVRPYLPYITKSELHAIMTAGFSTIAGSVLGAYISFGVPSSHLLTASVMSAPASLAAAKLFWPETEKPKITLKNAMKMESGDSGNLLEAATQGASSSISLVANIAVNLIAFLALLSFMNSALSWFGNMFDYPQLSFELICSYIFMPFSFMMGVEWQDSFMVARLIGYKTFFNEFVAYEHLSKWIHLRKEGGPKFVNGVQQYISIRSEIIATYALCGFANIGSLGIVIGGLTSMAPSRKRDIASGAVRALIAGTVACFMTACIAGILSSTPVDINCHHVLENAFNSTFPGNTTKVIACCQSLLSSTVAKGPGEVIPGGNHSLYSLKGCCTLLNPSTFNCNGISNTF

[2] = target: T3, hCNT3 (full-length wild-type) (Homo sapiens, UniProt Q9HAS3, N565A); test: isothermal titration calorimetry, one-site model; assay type: binding
T3 construct: gene SLC28A3; full-length, C-terminal Strep-tag, codon-optimized cDNA, baculovirus/Sf9 expression, purified in DDM, homotrimer
T3 sequence (Q9HAS3 1-691 N565A): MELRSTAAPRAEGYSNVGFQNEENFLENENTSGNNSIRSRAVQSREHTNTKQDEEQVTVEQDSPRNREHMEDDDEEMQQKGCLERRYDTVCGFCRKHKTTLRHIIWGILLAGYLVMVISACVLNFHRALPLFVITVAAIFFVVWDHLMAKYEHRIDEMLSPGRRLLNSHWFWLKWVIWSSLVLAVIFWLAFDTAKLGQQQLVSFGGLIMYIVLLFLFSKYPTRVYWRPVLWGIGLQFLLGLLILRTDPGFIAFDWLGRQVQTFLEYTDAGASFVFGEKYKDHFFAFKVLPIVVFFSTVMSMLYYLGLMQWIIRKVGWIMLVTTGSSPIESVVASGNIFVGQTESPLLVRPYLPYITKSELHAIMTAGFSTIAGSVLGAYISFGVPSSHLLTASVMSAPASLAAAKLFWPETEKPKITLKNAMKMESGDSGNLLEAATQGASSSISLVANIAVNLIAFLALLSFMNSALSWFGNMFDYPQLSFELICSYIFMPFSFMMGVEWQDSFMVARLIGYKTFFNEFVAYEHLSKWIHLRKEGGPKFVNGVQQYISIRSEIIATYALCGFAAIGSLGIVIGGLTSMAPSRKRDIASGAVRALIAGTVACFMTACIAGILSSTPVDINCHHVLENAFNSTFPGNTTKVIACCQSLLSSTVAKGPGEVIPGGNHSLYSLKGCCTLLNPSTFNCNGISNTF

[3] = target: T4, hCNT3 (full-length wild-type) (Homo sapiens, UniProt Q9HAS3, E343A); test: isothermal titration calorimetry, one-site model; settings: read-out: binding affinity
T4 construct: gene SLC28A3; full-length, C-terminal Strep-tag, codon-optimized cDNA, baculovirus/Sf9 expression, purified in DDM, homotrimer
T4 sequence (Q9HAS3 1-691 E343A): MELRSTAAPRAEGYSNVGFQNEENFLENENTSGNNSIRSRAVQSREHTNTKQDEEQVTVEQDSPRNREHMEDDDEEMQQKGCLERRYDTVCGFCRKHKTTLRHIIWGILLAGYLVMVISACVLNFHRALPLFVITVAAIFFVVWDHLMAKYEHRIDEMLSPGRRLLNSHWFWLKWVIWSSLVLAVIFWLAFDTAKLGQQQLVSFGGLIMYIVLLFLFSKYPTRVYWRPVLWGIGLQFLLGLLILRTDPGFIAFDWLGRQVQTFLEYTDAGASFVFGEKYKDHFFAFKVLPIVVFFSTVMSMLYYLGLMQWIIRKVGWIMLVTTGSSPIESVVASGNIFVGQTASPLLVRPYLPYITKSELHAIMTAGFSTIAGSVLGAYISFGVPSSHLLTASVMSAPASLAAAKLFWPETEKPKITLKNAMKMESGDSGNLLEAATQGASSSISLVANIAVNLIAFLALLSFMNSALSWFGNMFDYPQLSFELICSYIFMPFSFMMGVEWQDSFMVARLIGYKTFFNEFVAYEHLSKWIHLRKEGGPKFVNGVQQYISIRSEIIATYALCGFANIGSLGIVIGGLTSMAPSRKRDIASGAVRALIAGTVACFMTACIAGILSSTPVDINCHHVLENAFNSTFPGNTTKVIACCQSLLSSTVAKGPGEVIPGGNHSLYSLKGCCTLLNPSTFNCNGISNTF

[4] = target: the molecule itself; test: cryo-EM structure; purified CNT3ins (Δ1–69) at 6 mg/ml in 25 mM Tris pH 8.0, 150 mM NaCl, 0.1% digitonin; nucleoside-free; reconstruction with C3 symmetry

## Nc1ccn([C@@H]2O[C@H](CO)[C@@H](O)[C@H]2O)c(=O)n1 [cytidine]
[1]
  Kd: ~260 µM

## Cc1cn([C@H]2C[C@H](O)[C@@H](CO)O2)c(=O)[nH]c1=O [thymidine]
[1]
  Kd: ~603 µM

## O=c1ccn([C@@H]2O[C@H](CO)[C@@H](O)[C@H]2O)c(=O)[nH]1 [uridine]
CNT3ins (Δ1–69)
  Kd: ~368 µM
[1]
  Kd: ~325 µM
[2]
  Kd: ~280 µM
[3]
  Kd: ~1190 µM

B1: CNT3ins, the truncated isoform (Δ1–69) of human concentrative nucleoside transporter 3 (hCNT3) (domain or fragment, UniProt Q9HAS3 70-691, looked up)
chain: MEDDDEEMQQKGCLERRYDTVCGFCRKHKTTLRHIIWGILLAGYLVMVISACVLNFHRALPLFVITVAAIFFVVWDHLMAKYEHRIDEMLSPGRRLLNSHWFWLKWVIWSSLVLAVIFWLAFDTAKLGQQQLVSFGGLIMYIVLLFLFSKYPTRVYWRPVLWGIGLQFLLGLLILRTDPGFIAFDWLGRQVQTFLEYTDAGASFVFGEKYKDHFFAFKVLPIVVFFSTVMSMLYYLGLMQWIIRKVGWIMLVTTGSSPIESVVASGNIFVGQTESPLLVRPYLPYITKSELHAIMTAGFSTIAGSVLGAYISFGVPSSHLLTASVMSAPASLAAAKLFWPETEKPKITLKNAMKMESGDSGNLLEAATQGASSSISLVANIAVNLIAFLALLSFMNSALSWFGNMFDYPQLSFELICSYIFMPFSFMMGVEWQDSFMVARLIGYKTFFNEFVAYEHLSKWIHLRKEGGPKFVNGVQQYISIRSEIIATYALCGFANIGSLGIVIGGLTSMAPSRKRDIASGAVRALIAGTVACFMTACIAGILSSTPVDINCHHVLENAFNSTFPGNTTKVIACCQSLLSSTVAKGPGEVIPGGNHSLYSLKGCCTLLNPSTFNCNGISNTF
notes: human concentrative nucleoside transporter 3 (hCNT3, SLC28A3), truncated isoform lacking the 69 N-terminal residues (Δ1–69); codon-optimised cDNA; density resolved for residues 100–614; also called CNT3ins (Δ1–69); SLC28A3; source: Sf9 insect cells (baculovirus, pFastBac1), purified (StrepTactin Sepharose, Superose 6 SEC) in digitonin or DDM
[4]
  stoichiometry N: 3
